{
  "source": "ChEMBL document CHEMBL1127892",
  "about": "“(6-oxo-3-pyridazinyl)-benzimidazoles as potent angiotensin II receptor antagonists” (Bioorg Med Chem Lett, 1994)",
  "key": {"[1]": {"molecular_target": "T1, Angiotensin II receptor (AT-1) type-1 (Rattus norvegicus, UniProt P29089+P25095)", "T1 sequence (P29089 whole entry)": "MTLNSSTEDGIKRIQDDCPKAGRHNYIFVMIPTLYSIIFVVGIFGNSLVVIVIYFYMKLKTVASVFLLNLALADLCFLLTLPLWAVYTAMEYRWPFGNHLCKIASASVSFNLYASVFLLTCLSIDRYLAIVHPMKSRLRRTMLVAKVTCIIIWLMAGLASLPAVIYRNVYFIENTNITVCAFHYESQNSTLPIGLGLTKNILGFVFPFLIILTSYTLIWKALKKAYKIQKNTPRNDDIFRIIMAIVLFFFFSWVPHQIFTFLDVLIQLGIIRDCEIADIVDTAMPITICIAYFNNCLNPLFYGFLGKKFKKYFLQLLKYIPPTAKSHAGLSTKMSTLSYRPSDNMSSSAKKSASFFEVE", "T1 sequence (P25095 whole entry)": "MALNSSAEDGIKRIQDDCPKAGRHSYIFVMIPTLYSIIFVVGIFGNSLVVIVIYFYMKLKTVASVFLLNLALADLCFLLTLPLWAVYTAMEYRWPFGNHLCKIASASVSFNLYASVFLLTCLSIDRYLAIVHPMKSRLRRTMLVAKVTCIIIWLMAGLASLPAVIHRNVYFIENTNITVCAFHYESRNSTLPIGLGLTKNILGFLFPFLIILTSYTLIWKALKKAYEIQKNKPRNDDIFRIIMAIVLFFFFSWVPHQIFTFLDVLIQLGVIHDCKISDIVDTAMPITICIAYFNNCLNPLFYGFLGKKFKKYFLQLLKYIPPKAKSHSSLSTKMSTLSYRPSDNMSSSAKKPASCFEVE", "test": "Concentration required for 50% inhibition of binding against Angiotensin II receptor, type 1 in rat adrenal cortex", "assay_type": "tissue-based"}, "[2]": {"molecular_target": "T2, Type-1 angiotensin II receptor (Oryctolagus cuniculus, UniProt P34976)", "T2 sequence (P34976 whole entry)": "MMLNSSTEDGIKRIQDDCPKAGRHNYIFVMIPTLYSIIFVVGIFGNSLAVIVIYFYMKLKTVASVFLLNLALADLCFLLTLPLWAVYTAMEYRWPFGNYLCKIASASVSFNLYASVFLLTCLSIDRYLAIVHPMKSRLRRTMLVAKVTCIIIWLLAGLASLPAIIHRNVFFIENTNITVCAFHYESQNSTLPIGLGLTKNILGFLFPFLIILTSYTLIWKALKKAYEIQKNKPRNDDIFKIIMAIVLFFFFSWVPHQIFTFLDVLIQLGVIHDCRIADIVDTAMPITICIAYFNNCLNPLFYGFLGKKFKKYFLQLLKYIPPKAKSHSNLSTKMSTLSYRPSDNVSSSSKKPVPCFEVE", "test": "Inhibitory activity against Angiotensin II receptor, type 1 induced contractions in isolated rabbit aortic rings", "assay_type": "functional"}, "[3]": {"molecular_target": "T1, Angiotensin II receptor (AT-1) type-1", "test": "In vivo percent inhibition of Angiotensin II receptor, type 1 induced increase in diastolic blood pressure in pithed rat at 3 mg/kg i.d.", "assay_type": "functional, organism-based, Artery", "design": "dose 3 mg/kg, route intraduodenal"}, "[4]": {"molecular_target": "T3, Type-1 angiotensin II receptor (Bos taurus, UniProt P25104)", "T3 sequence (P25104 whole entry)": "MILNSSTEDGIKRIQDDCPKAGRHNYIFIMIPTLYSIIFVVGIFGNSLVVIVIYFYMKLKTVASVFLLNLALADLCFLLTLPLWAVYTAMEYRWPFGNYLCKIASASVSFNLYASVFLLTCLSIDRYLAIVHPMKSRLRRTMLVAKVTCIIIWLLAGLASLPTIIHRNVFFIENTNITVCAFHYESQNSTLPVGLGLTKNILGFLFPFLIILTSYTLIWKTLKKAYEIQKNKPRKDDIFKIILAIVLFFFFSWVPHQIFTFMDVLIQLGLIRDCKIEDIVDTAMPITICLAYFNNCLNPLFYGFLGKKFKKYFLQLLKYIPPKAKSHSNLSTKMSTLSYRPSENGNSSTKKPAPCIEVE", "test": "Concentration required for 50% inhibition of binding against Angiotensin II receptor, type 1 in bovine adrenal cortex", "assay_type": "tissue-based"}},
  "data": [
    {"smiles": "CC1(C)CC(=O)NN=C1c1ccc2nc(C3CC3)n(Cc3ccc(-c4ccccc4-c4nn[n-]n4)cc3)c2c1.[K+]", "values": [
      {"measurement": "IC50", "setting": "[1]", "result": 0.0034, "unit": "µM"},
      {"measurement": "IC50", "setting": "[2]", "result": 0.004, "unit": "µM"},
      {"measurement": "Inhibition", "setting": "[3]", "result": 80, "unit": "%"}
    ]},
    {"smiles": "Cc1cc(=O)n(CC(=O)N(C)C)nc1-c1ccc2nc(C3CC3)n(Cc3ccc(-c4ccccc4-c4nn[n-]n4)cc3)c2c1.[K+]", "values": [
      {"measurement": "IC50", "setting": "[1]", "result": 0.0036, "unit": "µM"}
    ]},
    {"smiles": "CN(C)C(=O)CN1N=C(c2ccc3nc(C4CC4)n(Cc4ccc(-c5ccccc5-c5nn[n-]n5)cc4)c3c2)C(C)(C)CC1=O.[K+]", "values": [
      {"measurement": "IC50", "setting": "[1]", "result": 0.0047, "unit": "µM"},
      {"measurement": "IC50", "setting": "[2]", "result": 0.002, "unit": "µM"}
    ]},
    {"smiles": "CCCc1nc2ccc(C3=NN(CC(=O)N(C)C)C(=O)CC3)cc2n1Cc1ccc(-c2ccccc2-c2nn[n-]n2)cc1.[K+]", "values": [
      {"measurement": "IC50", "setting": "[1]", "result": 0.0017, "unit": "µM"},
      {"measurement": "IC50", "setting": "[2]", "result": 0.002, "unit": "µM"}
    ]},
    {"smiles": "CCc1nc2ccc(C3=NN(CC(=O)N(C)C)C(=O)CC3)cc2n1Cc1ccc(-c2ccccc2-c2nn[n-]n2)cc1.[K+]", "values": [
      {"measurement": "IC50", "setting": "[1]", "result": 0.0016, "unit": "µM"},
      {"measurement": "IC50", "setting": "[2]", "result": 0.003, "unit": "µM"}
    ]},
    {"smiles": "CC1CC(=O)N(CC(=O)N(C)C)N=C1c1ccc2nc(C3CC3)n(Cc3ccc(-c4ccccc4-c4nn[n-]n4)cc3)c2c1.[K+]", "note": "(stereo unspecified)", "values": [
      {"measurement": "IC50", "setting": "[1]", "result": 0.0029, "unit": "µM"},
      {"measurement": "IC50", "setting": "[2]", "result": 0.002, "unit": "µM"},
      {"measurement": "Inhibition", "setting": "[3]", "result": 56, "unit": "%"}
    ]},
    {"smiles": "CN(C)C(=O)CN1N=C(c2ccc3nc(C4CC4)n(Cc4ccc(-c5ccccc5-c5nn[n-]n5)cc4)c3c2)CCC1=O.[K+]", "values": [
      {"measurement": "IC50", "setting": "[1]", "result": 0.0036, "unit": "µM"},
      {"measurement": "IC50", "setting": "[2]", "result": 0.002, "unit": "µM"}
    ]},
    {"smiles": "CCCCc1nc2ccc(C3=NN(CC(=O)N(C)C)C(=O)CC3C)cc2n1Cc1ccc(-c2ccccc2-c2nn[n-]n2)cc1.[K+]", "note": "(stereo unspecified)", "values": [
      {"measurement": "IC50", "setting": "[1]", "result": 0.0028, "unit": "µM"}
    ]},
    {"smiles": "CC1CC(=O)NN=C1c1ccc2nc(C3CC3)n(Cc3ccc(-c4ccccc4-c4nn[nH]n4)cc3)c2c1", "note": "(stereo unspecified)", "values": [
      {"measurement": "IC50", "setting": "[1]", "result": 0.0018, "unit": "µM"},
      {"measurement": "IC50", "setting": "[2]", "result": 0.002, "unit": "µM"},
      {"measurement": "Inhibition", "setting": "[3]", "result": 80, "unit": "%"}
    ]},
    {"smiles": "Cc1cc(O)nnc1-c1ccc2nc(C3CC3)n(Cc3ccc(-c4ccccc4-c4nn[nH]n4)cc3)c2c1", "values": [
      {"measurement": "IC50", "setting": "[1]", "result": 0.0018, "unit": "µM"},
      {"measurement": "IC50", "setting": "[2]", "result": 0.003, "unit": "µM"},
      {"measurement": "Inhibition", "setting": "[3]", "result": 40, "unit": "%"}
    ]},
    {"smiles": "CCCCc1nc2cc(C3=NNC(=O)CC3C)ccc2n1Cc1ccc(-c2ccccc2-c2nnn[nH]2)cc1", "note": "(stereo unspecified)", "values": [
      {"measurement": "IC50", "setting": "[4]", "result": 0.161, "unit": "µM"}
    ]},
    {"smiles": "CCCCc1nc2ccc(C3=NNC(=O)CC3C)cc2n1Cc1ccc(-c2ccccc2-c2nn[nH]n2)cc1", "note": "(stereo unspecified)", "values": [
      {"measurement": "IC50", "setting": "[1]", "result": 0.0063, "unit": "µM"},
      {"measurement": "IC50", "setting": "[4]", "result": 0.022, "unit": "µM"}
    ]},
    {"smiles": "CCCCc1nc2ccc(-c3nnc(O)cc3C)cc2n1Cc1ccc(-c2ccccc2-c2nn[nH]n2)cc1", "values": [
      {"measurement": "IC50", "setting": "[1]", "result": 0.0044, "unit": "µM"}
    ]},
    {"smiles": "CCCCc1nc2ccc(C3=NNC(=O)CC3)cc2n1Cc1ccc(-c2ccccc2-c2nn[nH]n2)cc1", "values": [
      {"measurement": "IC50", "setting": "[1]", "result": 0.005, "unit": "µM"}
    ]},
    {"smiles": "CCCCc1nc2cc(C3=NN(Cc4ccc(-c5ccccc5-c5nn[nH]n5)cc4)C(=O)CC3C)ccc2[nH]1", "note": "(stereo unspecified)", "values": [
      {"measurement": "IC50", "setting": "[4]", "result": 7, "unit": "µM"}
    ]},
    {"smiles": "COc1ccc(-c2nc3cc(C4=NNC(=O)CC4C)ccc3n2Cc2ccc(-c3ccccc3-c3nn[nH]n3)cc2)cc1", "note": "(stereo unspecified)", "values": [
      {"measurement": "IC50", "setting": "[4]", "result": 5.5, "unit": "µM"}
    ]},
    {"smiles": "COC(=O)c1ccccc1CN1N=C(c2ccc3nc(C4CC4)n(Cc4ccc(-c5ccccc5-c5nn[nH]n5)cc4)c3c2)C(C)CC1=O", "note": "(stereo unspecified)", "values": [
      {"measurement": "IC50", "setting": "[1]", "result": 0.0065, "unit": "µM"}
    ]},
    {"smiles": "COC(=O)CN1N=C(c2ccc3nc(C4CC4)n(Cc4ccc(-c5ccccc5-c5nn[nH]n5)cc4)c3c2)C(C)CC1=O", "note": "(stereo unspecified)", "values": [
      {"measurement": "IC50", "setting": "[1]", "result": 0.0032, "unit": "µM"},
      {"measurement": "IC50", "setting": "[2]", "result": 0.004, "unit": "µM"},
      {"measurement": "Inhibition", "setting": "[3]", "result": 57, "unit": "%"}
    ]},
    {"smiles": "CCCCc1nc2ccc(C3=NNC(=O)CC3C)cc2[nH]1", "note": "(stereo unspecified)", "values": [
      {"measurement": "IC50", "setting": "[4]", "result": "> 1000", "unit": "µM"}
    ]},
    {"smiles": "COc1ccc(-c2nc3cc(C4=NN(Cc5ccc(-c6ccccc6-c6nn[nH]n6)cc5)C(=O)CC4C)ccc3[nH]2)cc1", "note": "(stereo unspecified)", "values": [
      {"measurement": "IC50", "setting": "[4]", "result": 54, "unit": "µM"}
    ]},
    {"smiles": "COc1ccc(-c2nc3ccc(C4=NNC(=O)CC4C)cc3[nH]2)cc1", "note": "(stereo unspecified) [PIMOBENDAN]", "values": [
      {"measurement": "IC50", "setting": "[4]", "result": 17, "unit": "µM"}
    ]}
  ]
}
